Patent publication US5556744A, “Methods and compositions for diagnosing and treating certain HIV infected patients” (The Trustees of the University of Pennsylvania, priority 1994, dated 1996)

Key:
[1] = test system: maternal sera (antibodies); assay: ELISA peptide-binding of maternal sera (Example 6); design: species or system human; conditions: for Number of Non-Transmitters which bound to peptide / Percent of Non-Transmitters which bound to peptide: N = 12; for Number of Transmitters which bound to peptide / Percent of Transmitters which bound to peptide: N = 4
Description: A total of 86 maternal sera samples obtained from patients of the Hospital of the University of Pennsylvania during the third trimester of pregnancy were used in this study 58 (67%) were non-transmitters and 28 (33%) were transmitters. This is approximately consistent with the national average (i.e. a rate of transmission between 25-30%). Transmission status was based upon serological or molecular diagnosis of children (at an age of greater than 15 months) born to these mothers. Because of the constraints on the volume of serum available for many of these samples, not all sera were analyzed with all the peptides. However, each sera sample was run with at least 40 peptides.
These peptides are of an average length of 16 amino acids and covered the entire external as well as the transmembrane glycoprotein of HIV-1. Peptide binding was analyzed by ELISA essentially as described in Example 3.
The results of one study, using some of the peptides identified above among others, is provided in Table 12, which illustrates the number and percent of non-transmitters which bound to the tested peptide. The percentage designation refers to the percentage of sera samples which bound to a particular peptide. A value of greater than 0% means that at least one of the samples bound to the particular peptides.

[2] = test system: maternal HIV+ sera (antibodies); assay: RIA / ELISA binding of maternal HIV+ sera to gp120 and gp41 peptides (Example 3); design: species or system human
Summary of the method: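 Peptides were coated at 10 μg/ml in carbonate buffer pH 9.6 and blocked with 1% BSA. Sera at 1:50 and 1:500 were incubated overnight at 4°C and detected with ¹²⁵I anti-human IgG (RIA) or HRP/TMB at OD450 (ELISA). Specific binding was taken as peptide minus no-peptide wells, scored as a ratio to normal human serum.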

In the case of “DC419 (IIIB): Peptide DC419 (IIIB), Sequence ID No. 191 (TGDIITLPCRIKQIINRWQV)”, the “Number of Non-Transmitters which bound to peptide” value [1] is reported as 0, the “Percent of Non-Transmitters which bound to peptide” value [1] is reported as 0% and the “Number of Transmitters which bound to peptide” value [1] is reported as 0. For the same substance, the “Percent of Transmitters which bound to peptide” value [1] was 0%.
“T19V: Peptide T19V, Sequence ID No. 195; described in the January 1991 Catalog (TGPCTNVSTVQCTHGIRPV)” was tested, and the “Number of Non-Transmitters which bound to peptide” value [1] was 3, the “Percent of Non-Transmitters which bound to peptide” value [1] was 25% and the “Number of Transmitters which bound to peptide” value [1] was 0. The “Percent of Transmitters which bound to peptide” value [1] was 0%.
In the case of YNKRKRIHIQRGPGRAFYTTKNII [AIDS-PND], the “Correlation of peptide binding with non-transmitters (in words)” value ([1]; Example 6) is reported as “selectively correlate with non-transmitters”, the “Fold binding, non-transmitters vs transmitters” value ([1]; Example 6) is reported as “at least two fold greater” and the “Number of Non-Transmitters which bound to peptide” value [1] is reported as 7. The “Percent of Non-Transmitters which bound to peptide” value [1] was 58.3%, the “Percent of Non-Transmitters which bound to peptide” value ([1]; listed as AID-PND) was “greater than 50%” and the “Number of Transmitters which bound to peptide” value [1] was 1. The “Percent of Transmitters which bound to peptide” value [1] was 25%.
In the case of “124: gp41 peptide, amino acids 646-660, SEQ ID NO:123 (IEESQNQQEKNEQEL) [Peptide 124]”, the “Number of Non-Transmitters which bound to peptide” value [1] is reported as 0, the “Percent of Non-Transmitters which bound to peptide” value [1] is reported as 0% and the “Number of Transmitters which bound to peptide” value [1] is reported as 0. The “Percent of Transmitters which bound to peptide” value [1] was 0%.
For “105: gp120 peptide, amino acids 286-300, SEQ ID NO:112 (VQLNTSVEINCTRPN) [Peptide 105]”, the “Number of Non-Transmitters which bound to peptide” value [1] was 0, the “Percent of Non-Transmitters which bound to peptide” value [1] was 0% and the “Number of Transmitters which bound to peptide” value [1] was 0. The “Percent of Transmitters which bound to peptide” value [1] was 0%.
For “41-11: gp41 peptide, amino acids 541-564, HIV strain MN, SEQ ID NO: 157 (QARQLLSGIVQQQNNLLRAIEAQQ) [Peptide 41-11]”, the “Number of Non-Transmitters which bound to peptide” value [1] was 0, the “Percent of Non-Transmitters which bound to peptide” value [1] was 0% and the “Number of Transmitters which bound to peptide” value [1] was 0. For the same substance, the “Percent of Transmitters which bound to peptide” value [1] was 0%.
In the case of “A824: gp41 peptide, amino acids 824-831, HIV strain IIIB, SEQ ID NO: 175 (EGTDRVIE) [Peptide A824]”, the “Number of Non-Transmitters which bound to peptide” value [1] is reported as 0, the “Percent of Non-Transmitters which bound to peptide” value [1] is reported as 0% and the “Number of Transmitters which bound to peptide” value [1] is reported as 0. The “Percent of Transmitters which bound to peptide” value [1] was 0%.
With VVQREKRAVGIG [Peptide 510] the “Number of Non-Transmitters which bound to peptide” value [1] was 4, the “Number of Transmitters which bound to peptide” value [1] was 0 and the “Percent of Transmitters which bound to peptide” value [1] was 0%.
With “A6938: gp120 peptide, amino acids 200-217, HIV strain IIIB, SEQ ID NO: 135 (VITQACPKVSFEPIPIHY) [Peptide A6938]” the “Number of Non-Transmitters which bound to peptide” value [1] was 0, the “Percent of Non-Transmitters which bound to peptide” value [1] was 0% and the “Number of Transmitters which bound to peptide” value [1] was 0. For the same substance, the “Percent of Transmitters which bound to peptide” value [1] was 0%.
For “5099: gp41 peptide, amino acids 512-543, HIV strain IIIB, SEQ ID NO: 162 (AYGIGALFLGFLGAAGSTMGAASMTLTVQARC) [Peptide 5099]”, the “Number of Non-Transmitters which bound to peptide” value [1] was 1, the “Percent of Non-Transmitters which bound to peptide” value [1] was 83% and the “Number of Transmitters which bound to peptide” value [1] was 0. For the same substance, the “Percent of Transmitters which bound to peptide” value [1] was 0%.
“41-21: gp41 peptide, amino acids 661-683, HIV strain IIIB, SEQ ID NO: 152 (LELDKWASLWNWFNITNWLWYIK) [Peptide 41-21]” was tested, and the “Number of Non-Transmitters which bound to peptide” value [1] was 0, the “Percent of Non-Transmitters which bound to peptide” value [1] was 0% and the “Number of Transmitters which bound to peptide” value [1] was 0. The “Percent of Transmitters which bound to peptide” value [1] was 0%.
For “RG-1: gp41 peptide, amino acids 510-516, HIV strain IIIB, SEQ ID NO: 177 (KRAVGIG)”, the “Number of Non-Transmitters which bound to peptide” value [1] was 3, the “Percent of Non-Transmitters which bound to peptide” value [1] was 25% and the “Number of Transmitters which bound to peptide” value [1] was 1. The “Percent of Transmitters which bound to peptide” value [1] was 25%.
In the case of “A604 (IIIB): Peptide A604 (IIIB), Sequence ID No. 193 (CTTAVPWNASWSNKS)”, the “Number of Non-Transmitters which bound to peptide” value [1] is reported as 2, the “Percent of Non-Transmitters which bound to peptide” value [1] is reported as 16.7% and the “Number of Transmitters which bound to peptide” value [1] is reported as 0. The “Percent of Transmitters which bound to peptide” value [1] was 0%.
In the case of “CNNKTFNGTGFCTNVSTVQ (CNNKTFNGTGPCTNVSTVQ) [Peptide C19Q]”, the “Number of Non-Transmitters which bound to peptide” value [1] is reported as 4, the “Number of Transmitters which bound to peptide” value [1] is reported as 0 and the “Percent of Transmitters which bound to peptide” value [1] is reported as 0%.
For “BS-2: gp41 peptide, amino acids 625-634, HIV strain IIIB, SEQ ID NO: 176 (NMTWMEWDRE)”, the “Number of Non-Transmitters which bound to peptide” value [1] was 0, the “Percent of Non-Transmitters which bound to peptide” value [1] was 0% and the “Number of Transmitters which bound to peptide” value [1] was 0. The “Percent of Transmitters which bound to peptide” value [1] was 0%.
For “S19C: Peptide S19C, Sequence ID No. 196; described in the January 1991 Catalog (STQLLLNGSLAEEEVVIR)”, the “Number of Non-Transmitters which bound to peptide” value [1] was 0, the “Percent of Non-Transmitters which bound to peptide” value [1] was 0% and the “Number of Transmitters which bound to peptide” value [1] was 0. The “Percent of Transmitters which bound to peptide” value [1] was 0%.
For “RG-2: gp41 peptide, amino acids 678-697, HIV strain IIIB, SEQ ID NO: 178 (WLWYIKLFIMIVGGLVGLRI)”, the “Number of Non-Transmitters which bound to peptide” value [1] was 0, the “Percent of Non-Transmitters which bound to peptide” value [1] was 0% and the “Number of Transmitters which bound to peptide” value [1] was 0. The “Percent of Transmitters which bound to peptide” value [1] was 0%.
For “A405: gp120 peptide, amino acids 405-423, HIV strain Z3, SEQ ID NO: 130 (TGNITLPCRIKQVVRTWQG) [Peptide A405]”, the “Number of Non-Transmitters which bound to peptide” value [1] was 1, the “Percent of Non-Transmitters which bound to peptide” value [1] was 8.3% and the “Number of Transmitters which bound to peptide” value [1] was 0. The “Percent of Transmitters which bound to peptide” value [1] was 0%.
With “WSK-1: gp120 peptide, amino acids 378-394, SEQ ID NO:115 (GGEFFYCNSTQLFNSTW)” the “Number of Non-Transmitters which bound to peptide” value [1] was 0, the “Percent of Non-Transmitters which bound to peptide” value [1] was 0% and the “Number of Transmitters which bound to peptide” value [1] was 0. The “Percent of Transmitters which bound to peptide” value [1] was 0%.
In the case of “A524: gp41 peptide, amino acids 523-530, HIV strain MN, SEQ ID NO: 163 (FLGFLGAAGST) [Peptide A524]”, the “Number of Non-Transmitters which bound to peptide” value [1] is reported as 0, the “Percent of Non-Transmitters which bound to peptide” value [1] is reported as 0% and the “Number of Transmitters which bound to peptide” value [1] is reported as 0. The “Percent of Transmitters which bound to peptide” value [1] was 0%.
With “41-22: gp41 peptide, amino acids 702-720, HIV strain BH10, SEQ ID NO: 155 [Peptide 41-22]” the “Number of Non-Transmitters which bound to peptide” value [1] was 0, the “Percent of Non-Transmitters which bound to peptide” value [1] was 0% and the “Number of Transmitters which bound to peptide” value [1] was 0. The “Percent of Transmitters which bound to peptide” value [1] was 0%.
For TRKSIRIQRGPGRAF [Peptide 107], the “Percentage of sera samples demonstrating binding to peptide, non-transmitter” value ([2]; Non-transmitter group, n = 13) was 100%, the “Binding of maternal HIV+ serum to peptide (sera/NHS ratio)” value (from here on “Binding … (sera/NHS ratio)”) ([2]; Serum No. 1, Non-Transmission Group) was “++ (which value is greater than 3)” and the “Binding … (sera/NHS ratio)” value ([2]; Serum No. 2, Non-Transmission Group) was “++ (which value is greater than 3)”. For the same substance, the “Binding … (sera/NHS ratio)” value ([2]; Serum No. 3, Non-Transmission Group) was “++ (which value is greater than 3)”, the “Binding … (sera/NHS ratio)” value ([2]; Serum No. 4, Transmission Group) was “++ (which value is greater than 3)” and the “Binding … (sera/NHS ratio)” value ([2]; Serum No. 5, Transmission Group) was “++ (which value is greater than 3)”. For the same substance, the “Binding … (sera/NHS ratio)” value ([2]; Serum No. 6, Non-Transmission Group) was “++ (which value is greater than 3)”, the “Binding … (sera/NHS ratio)” value ([2]; Serum No. 7, Non-Transmission Group) was “+ (which value is between 2 to 3)” and the “Binding … (sera/NHS ratio)” value ([2]; Serum No. 8, Non-Transmission Group) was “++ (which value is greater than 3)”. The “Binding … (sera/NHS ratio)” value ([2]; Serum No. 9, Non-Transmission Group) was “++ (which value is greater than 3)”, the “Binding … (sera/NHS ratio)” value ([2]; Serum No. 10, Transmission Group) was “+ (which value is between 2 to 3)” and the “Binding … (sera/NHS ratio)” value ([2]; Serum No. 11, Non-Transmission Group) was “++ (which value is greater than 3)”. For the same substance, the “Binding … (sera/NHS ratio)” value ([2]; Serum No. 12, Non-Transmission Group) was “++ (which value is greater than 3)”, the “Binding … (sera/NHS ratio)” value ([2]; Serum No. 13, Transmission Group) was “++ (which value is greater than 3)” and the “Binding … (sera/NHS ratio)” value ([2]; Serum No. 14, Transmission Group) was “++ (which value is greater than 3)”. The “Binding … (sera/NHS ratio)” value ([2]; Serum No. 15, Transmission Group) was “- (specific OD450 or cpm of sera sample binding to peptide divided by the specific OD450 or cpm of NHS sample binding to peptide, which value is less than 2)”, the “Binding … (sera/NHS ratio)” value ([2]; Serum No. 16, Non-Transmission Group) was “++ (which value is greater than 3)” and the “Binding … (sera/NHS ratio)” value ([2]; Serum No. 17, Non-Transmission Group) was “++ (which value is greater than 3)”. The “Binding … (sera/NHS ratio)” value ([2]; Serum No. 18, Non-Transmission Group) was “++ (which value is greater than 3)”, the “Binding … (sera/NHS ratio)” value ([2]; Serum No. 19, Transmission Group) was “++ (which value is greater than 3)” and the “Binding … (sera/NHS ratio)” value ([2]; Serum No. 20, Non-Transmission Group) was “++ (which value is greater than 3)”. The “Percentage of sera samples demonstrating binding to peptide, transmitter” value ([2]; Transmitter / transmission group, n = 7) was 85.7% and the “Percent of the maternal serum samples that bound to the peptide” value ([2]; all 20 samples) was 95%.
